In patent publication US20240383915A1, “OXAZEPINE COMPOUNDS AND USES THEREOF IN THE TREATMENT OF CANCER” (Genentech, Inc., priority 2021, published 2024):

What was measured:
[1] = test system: SW480 cells; test: SW480 proliferation assay; type: cell-based; conditions: Homo sapiens, SW480, SW480; read-out: SW480 Prolif IC50 (G12V)
[2] = biological target: KRas (Homo sapiens (Human), UniProt P01116); test: KRas GDP HTRF (BODIPY-GDP exchange TR-FRET); type: biochemical
Summary of the method: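 Inhibition of SOS1-mediated exchange of BODIPY-GDP on KRAS G12D, started with 3 nM recombinant human SOS1 and 300 nM BODIPY-GDP and read after 60 min. TR-FRET excitation 337 nm, ratio 520/490 nm ×10,000. IC50 from 4-parameter Hill fit of normalized data.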

[3] = test system: PC-9 cells; test: PC9 proliferation assay; type: cell-based, human; conditions: Homo sapiens, PC-9, PC9; read-out: PC9 Prolif IC50 (G12V)
[4] = biological target: KRas(G12V) (Homo sapiens (Human), UniProt P01116, G12V); test: KRas(G12V) GDP HTRF (BODIPY-GDP exchange TR-FRET); type: biochemical
Chain of KRas(G12V) (P01116-2 other isoform, or with tags, fused parts or gaps G12V): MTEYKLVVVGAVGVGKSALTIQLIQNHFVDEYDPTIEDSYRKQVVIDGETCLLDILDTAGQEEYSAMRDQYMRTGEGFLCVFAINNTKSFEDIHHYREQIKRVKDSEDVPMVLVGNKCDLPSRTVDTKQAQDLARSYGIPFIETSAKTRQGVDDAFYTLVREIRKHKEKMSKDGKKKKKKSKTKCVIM

Chain of KRas (P01116-2 other isoform, or with tags, fused parts or gaps): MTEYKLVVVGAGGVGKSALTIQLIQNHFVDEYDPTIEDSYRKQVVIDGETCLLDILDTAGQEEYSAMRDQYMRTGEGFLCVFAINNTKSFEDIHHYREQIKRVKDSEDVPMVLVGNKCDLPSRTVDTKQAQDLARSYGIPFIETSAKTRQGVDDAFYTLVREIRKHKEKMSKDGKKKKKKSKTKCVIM

IC50 [1]	IC50 [2]	IC50 [3]	IC50 [4]	SMILES
39 nM	0.273 nM	3200 nM	0.13 nM	Cc1cc(N)nc(-c2c(Cl)c3c4c(nc(OC[C@@H]5C[C@@H](F)CN5C)nc4c2F)N([C@@H]2CCCc4ccnc(N)c42)CCO3)c1C(F)(F)F (atropisomer, axis not shown) [Example 132, (R)-8-((R)-9-(6-amino-4-methyl-3-(trifluoromethyl)pyridin-2-yl)-8-chloro-10-fluoro-2-(((2S,4R)-4-fluoro-1-methylpyrrolidin-2-yl)methoxy)-5,6-dihydro-4H-[1,4]oxazepino[5,6,7-de]quinazolin-4-yl)-5,6,7,8-tetrahydroisoquinolin-1-amine]
390 nM	0.37 nM	1500 nM	0.08 nM	Cc1cc(N)nc(-c2c(Cl)c3c4c(nc(OCCN5CCN(C)CC5)nc4c2F)N([C@H](C)c2cccnc2N)CCO3)c1C(F)(F)F (atropisomer, axis not shown) [Example 135, 6-((R)-4-((R)-1-(2-aminopyridin-3-yl)ethyl)-8-chloro-10-fluoro-2-(2-(4-methylpiperazin-1-yl)ethoxy)-5,6-dihydro-4H-[1,4]oxazepino[5,6,7-de]quinazolin-9-yl)-4-methyl-5-(trifluoromethyl)pyridin-2-amine]
63 nM	0.83 nM	8600 nM	0.21 nM	Cc1cc(N)nc(-c2c(Cl)c3c4c(nc(OCCn5cccn5)nc4c2F)N([C@H](C)c2cccnc2N)CCO3)c1C(F)(F)F (atropisomer, axis not shown) [Example 136, 6-((R)-2-(2-(1H-pyrazol-1-yl)ethoxy)-4-((R)-1-(2-aminopyridin-3-yl)ethyl)-8-chloro-10-fluoro-5,6-dihydro-4H-[1,4]oxazepino[5,6,7-de]quinazolin-9-yl)-4-methyl-5-(trifluoromethyl)pyridin-2-amine]
120 nM	1.1 nM	7700 nM	0.31 nM	Cc1cc(N)nc(-c2c(Cl)c3c4c(nc(OCC5(C#N)CCOCC5)nc4c2F)N([C@H](C)c2cccnc2N)CCO3)c1C(F)(F)F (atropisomer, axis not shown) [Example 142, 4-((((R)-9-(6-amino-4-methyl-3-(trifluoromethyl)pyridin-2-yl)-4-((R)-1-(2-aminopyridin-3-yl)ethyl)-8-chloro-10-fluoro-5,6-dihydro-4H-[1,4]oxazepino[5,6,7-de]quinazolin-2-yl)oxy)methyl)tetrahydro-2H-pyran-4-carbonitrile]
520 nM	4.4 nM	6000 nM	1.4 nM	Cc1cc(N)nc(-c2c(Cl)c3c4c(nc(OCC5(C)CCOCC5)nc4c2F)N([C@H](C)c2cccnc2N)CCO3)c1C(F)(F)F (atropisomer, axis not shown) [Example 144, 6-((R)-4-((R)-1-(2-aminopyridin-3-yl)ethyl)-8-chloro-10-fluoro-2-((4-methyltetrahydro-2H-pyran-4-yl)methoxy)-5,6-dihydro-4H-[1,4]oxazepino[5,6,7-de]quinazolin-9-yl)-4-methyl-5-(trifluoromethyl)pyridin-2-amine]
450 nM	1.2 nM	20000 nM	0.56 nM	Cc1cc(N)nc(-c2c(Cl)c3c4c(nc(OC[C@H]5C[C@H](O)C5)nc4c2F)N([C@H](C)c2cccnc2N)CCO3)c1C(F)(F)F (atropisomer, axis not shown) [Example 145, (1R,3r)-3-((((R)-9-(6-amino-4-methyl-3-(trifluoromethyl)pyridin-2-yl)-4-((R)-1-(2-aminopyridin-3-yl)ethyl)-8-chloro-10-fluoro-5,6-dihydro-4H-[1,4]oxazepino[5,6,7-de]quinazolin-2-yl)oxy)methyl)cyclobutan-1-ol]
510 nM	1.5 nM	19000 nM	0.61 nM	Cc1cc(N)nc(-c2c(Cl)c3c4c(nc(OC[C@H]5C[C@@H](O)C5)nc4c2F)N([C@H](C)c2cccnc2N)CCO3)c1C(F)(F)F (atropisomer, axis not shown) [Example 146, (1S,3s)-3-((((R)-9-(6-amino-4-methyl-3-(trifluoromethyl)pyridin-2-yl)-4-((R)-1-(2-aminopyridin-3-yl)ethyl)-8-chloro-10-fluoro-5,6-dihydro-4H-[1,4]oxazepino[5,6,7-de]quinazolin-2-yl)oxy)methyl)cyclobutan-1-ol]
410 nM	3.6 nM	9600 nM	1.1 nM	Cc1cc(N)nc(-c2c(Cl)c3c4c(nc(OCC5CCN(S(C)(=O)=O)CC5)nc4c2F)N([C@H](C)c2cccnc2N)CCO3)c1C(F)(F)F (atropisomer, axis not shown) [Example 148, 6-((R)-4-((R)-1-(2-aminopyridin-3-yl)ethyl)-8-chloro-10-fluoro-2-((1-(methylsulfonyl)piperidin-4-yl)methoxy)-5,6-dihydro-4H-[1,4]oxazepino[5,6,7-de]quinazolin-9-yl)-4-methyl-5-(trifluoromethyl)pyridin-2-amine]
700 nM	5.4 nM	14000 nM	1.1 nM	Cc1cc(N)nc(-c2c(Cl)c3c4c(nc(OCCF)nc4c2F)N([C@H](C)c2cccnc2N)CCO3)c1C(F)(F)F (atropisomer, axis not shown) [Example 151, 6-((R)-4-((R)-1-(2-aminopyridin-3-yl)ethyl)-8-chloro-10-fluoro-2-(2-fluoroethoxy)-5,6-dihydro-4H-[1,4]oxazepino[5,6,7-de]quinazolin-9-yl)-4-methyl-5-(trifluoromethyl)pyridin-2-amine]
180 nM	2.3 nM	5600 nM	0.75 nM	Cc1cc(N)nc(-c2c(Cl)c3c4c(nc(OCC5CCOCC5)nc4c2F)N([C@H](C)c2cccnc2N)CCO3)c1C(F)(F)F (atropisomer, axis not shown) [Example 152, 6-((R)-4-((R)-1-(2-aminopyridin-3-yl)ethyl)-8-chloro-10-fluoro-2-((tetrahydro-2H-pyran-4-yl)methoxy)-5,6-dihydro-4H-[1,4]oxazepino[5,6,7-de]quinazolin-9-yl)-4-methyl-5-(trifluoromethyl)pyridin-2-amine]
190 nM	3.3 nM	14000 nM	0.78 nM	Cc1cc(N)nc(-c2c(Cl)c3c4c(nc(OCC5(C#N)CC5)nc4c2F)N([C@H](C)c2cccnc2N)CCO3)c1C(F)(F)F (atropisomer, axis not shown) [Example 153, 1-((((R)-9-(6-amino-4-methyl-3-(trifluoromethyl)pyridin-2-yl)-4-((R)-1-(2-aminopyridin-3-yl)ethyl)-8-chloro-10-fluoro-5,6-dihydro-4H-[1,4]oxazepino[5,6,7-de]quinazolin-2-yl)oxy)methyl)cyclopropane-1-carbonitrile]

SMILES	IC50 [1]	IC50 [2]	IC50 [3]	IC50 [4]
Cc1cc(N)nc(-c2c(Cl)c3c4c(nc(OCC56CCCN5CCC6)nc4c2F)N([C@H](C)c2cccnc2N)CCO3)c1C(F)(F)F (atropisomer, axis not shown) [Example 147, 6-((R)-4-((R)-1-(2-aminopyridin-3-yl)ethyl)-8-chloro-10-fluoro-2-((tetrahydro-1H-pyrrolizin-7a(5H)-yl)methoxy)-5,6-dihydro-4H-[1,4]oxazepino[5,6,7-de]quinazolin-9-yl)-4-methyl-5-(trifluoromethyl)pyridin-2-amine]	44 nM	0.18 nM	1300 nM	0.06 nM
